# Source: patent publication US5358936A, “Anionic furanose derivatives, methods of making and using the same” (Gordon; Paul, priority 1991, dated 1994)
# Entries after “also recorded” stand apart in the source; their conditions may differ. Counter-ions that a name gives are not always drawn. Like-named read-outs stand apart in the source and are kept apart here.
# Columns and labels:
# rat paw [1] = details: in vivo; cited from earlier work
# rat paw [2] = assay: Post-ischemic reperfusion paw swelling (Example 22); format: in vivo, Sprague Dawley male rats; details: for Swelling change as a result of treatment: 30 minutes; for Post-ischemic reperfusion 30 minute paw swelling, Mn ± SE: P < 0.02; for % Change as a result of treatment / Paw swelling, Mean ± SE: another study; for Paw swelling, Mean ± SE: i.p. 45 minutes prior
# Excerpt: This important disease model is used to evaluate aspects of tissue injury that occur in heart attack, or myocardial infarction, and stroke. Under these conditions, a significant period of injury can occur after blood flow has been restored, during the period of reperfusion.
# To produce ischemia, blood flow to the left hind foot was largely interrupted by application of a tourniquet made up of two size 18 rubber bands wound eight times around the leg just behind the heel. […] Both application and removal of tourniquet were carried out under ether anesthesia. Injury was equated with organ swelling, which was assayed by measurement of the dorsoventral foot diameter with a Schnelltaster caliper, just before application of the tourniquet and at various times following tourniquet removal, during the reperfusion period.
# Rats employed were Sprague Dawley males, weighing 240-280 grams. Drug comparisons were made here employing measurements 30 minutes into the reperfusion period. The widely studied drug allopurinol, a xanthine oxidase inhibitor and a free radical scavenging agent, used in the treatment of gout, and widely used to suppress experimental post-ischemic reperfusion injury was used as an experimental treatment standard. In studies below, allopurinol and all new drugs were given intraperitoneally 45-60 minutes prior to application of the tourniquet. Data are reported as the mean swelling (Mn)±standard error (SE). […] Group n is 5 or 6.
# In another study, drug comparisons were made at various times after the reperfusion period. In this study, control and drug treatment groups were as above.
# platelet aggregation = assay: Mouse tail bleeding time (Example 31 B); format: in vivo; details: for % Increase in bleeding time / Mouse Tail Bleeding Time: 100 mg/kg intraperitoneal; for Mouse Tail Bleeding Time: control 37.0 ± 5.25
# Experimental: A study of mouse tail bleeding time, which is an in vivo model of platelet aggregation and thrombosis was also conducted. In this widely employed model, bleeding was induced by a standardized transection of the tail tip and subsequent bleeding time was determined after vertical immersion of the tails in isotonic saline at 37° C. for thirty seconds.
# Two compounds of the invention, Compound III and Compound VIII, were assessed as compared with aspirin, in another study of mouse tail bleeding time. In this study, the mice were housed in a standard animal room rather than in a noisy small animal isolator. Also, all three drugs were administered by an intraperitoneal route, rather than a subcutaneous route for Compound III and an intraperitoneal route for aspirin.
# stomach ulcers = assay: Gastric ulcers in rats with corona virus infection treated with indomethacin (Example 26); format: in vivo, rat; details: indomethacin 30 mg/kg oral
# Excerpt: Corona virus is a non-lethal upper respiratory viral pathogen that not infrequently infects rat colonies. It is a type of rodent coryza or catarrh, the equivalent of a disease that falls somewhere between human influenza and a severe common cold. The animals of this study suffered from this condition, a circumstance which was evident by observation, and which was confirmed by virological diagnosis at the Biological Resources Laboratory of the University of Illinois at Chicago. Since stress is a common component of peptic ulcer development in both animals and man, it was concluded that this feature of the status of these experimental animals rendered them appropriate for an ulcer study.
# In this study, animals were not food deprived and were divided into treatment groups such that 15 rats received 30 mg/kg indomethacin alone (in water by oral gavage), 14 rats received indomethacin plus an injection of 25 mg/kg cimetidine subcutaneously, and 7 rats received indomethacin plus subcutaneous injection of 17.5 mg/kg of Compound III.
# All animals were sacrificed by ether euthanasia 24 hours later and their stomachs evaluated for ulcer pathology. In this study ulcers were not hemorrhagic. Results are shown below as the average number of stomach ulcers per stomach.
# peritoneal neutrophils = assay: In vitro neutrophil chemotaxis toward zymosan-activated rat serum (Example 24); format: cell-based, mouse; details: for IC50: 6 h, read-out: ID50 (molar concentration that inhibited chemotaxis by 50 percent)
# Experimental: In vitro neutrophil chemotaxis studies were carried out by standard methods, as follows:
# Mice were injected with complete Freund's adjuvant (CFA) and peritoneal cells, principally neutrophjls (>90 percent), were reproved from the mice 24 hours thereafter. Blind-well chemotactic chambers (Nucleopore Corp., Pleasanton, Calif.) were utilized.
# Medium (RPMI 1640 plus 10 percent fetal calf serum) or medium plus 20 percent zymosan-activated rat serum (ZAS) was added to the lower compartment of each chamber. A nucleopore filter (8 μm pore size) was placed between compartments and 1×10^5 peritoneal neutrophils (above) suspended in medium were placed in the upper compartment. Chambers were incubated for six hours, after which time the filters were removed and stained with Giemsa stain. The number of cells on the lower surface of the filter was counted under a microscope. Treatment groups were assayed in duplicate.
# The studies were carried out more specifically as follows:
# Zymosan (Sigma Chemical Co., St. Louis, Mo.) was mixed with rat serum for one hour at 37° C. at 1 milligram (mg)/ml. The resulting chemoattractant composition was filtered, aliquotted and stored frozen at -70° C. prior to use.
# The above chemoattractant composition was used as a 20 percent v/v solution in medium.
# The chemotaxis chambers were arranged as follows:
# The chambers were incubated at 37° C. for six hours, after which the chambers were dismantled, and the filters removed and treated as follows:
# a) The filters were immersed in Giemsa stain diluted 1:50 for 30-45 minutes.
# b) The stained filters were rinsed gently in distilled water for 3-5 minutes.
# c) The stained, rinsed filters were air dried without blotting.
# Several compounds described herein and control compounds ("drug", above) were examined at various concentrations, in duplicate. The molar concentration of a drug that inhibited the observed chemotaxis by 50 percent, defined as the ID50 value, was determined as shown below.
# [3] = system: gastric submucosal thrombi; assay: Inhibition of gastric submucosal thrombi (Example 30); format: in vivo, rat; details: 10 mg/kg IV
# Experimental: Thrombosis was induced in rat stomach submucosal blood vessels by the following two-step treatment. First, 1.5 ml of 100 percent ethanol was administered by oral gavage. This produces non-specific injury to tissues and blood vessels of the gastric mucosa. Second, 1.0 mg of adenosine diphosphate (ADP) in 1.0 ml of H2 O, was administered by oral garage 15 minutes after the administration of ethanol. Administration of ADP biases the organ response towards thrombosis by inducing platelet aggregation.
# The pathology generated is typically a disseminated pattern of multiple small thrombi, observed on examination of the gastric mucosa, 1-3 hours after ethanol administration. These thrombi are dark red, dilated, thrombosed submucosal blood vessel segments, each being approximately 1 mm thick and 2 to 6 mm long.
# In these studies, animals were treated with drug or centrol at one hour prior to ethanol administration. Thrombosis was induced as discussed before, and animals were sacrificed at 1.5 hours after ethanol administration. Focal thrombi were then counted. In this study, n=9-10.
# [4] = Dissolution and buffering of suspensions, HCl titration (Example 16)
# Excerpt: Note that the term "apparent pK" in this context is meant to encompass the maximization of buffering that come both from solid-state dissolution and its titration as solute.
# [5] = Mus musculus, Neutrophil, read-out: Percent Inhibition of chemotaxis
# [6] = Mus musculus, Neutrophil, 20 percent zymosan-activated rat serum, six hours, 37° C.
# [7] = Mus musculus, Neutrophil, dose 1.0 μg/ml, read-out: Percent Inhibition of chemotaxis
# [8] = Mus musculus, Neutrophil, dose 0.1 μg/ml, read-out: Percent Inhibition of chemotaxis
# [9] = Mus musculus, Neutrophil, dose 10.0 μg/ml, read-out: Percent Inhibition of chemotaxis
smiles,measurement,setting,value
"Oc1ncnc2[nH]ncc12 [Allopurinol, reference compound]","effect on edema that develops following removal of the tourniquet, in words",rat paw [1],suppress the edema
same,near toxic level at which allopurinol is utilized in reperfusion injury,rat paw [1],20 to 30 mg/kg
same,Swelling change as a result of treatment,"rat paw [2]; study B, i.p., Compound III 0.2 mg/kg, allopurinol 20 mg/kg",-35%
same,"Post-ischemic reperfusion 30 minute paw swelling, Mn ± SE","rat paw [2]; study B, i.p., Compound III 0.2 mg/kg, allopurinol 20 mg/kg, control 20.5 ± 0.76",13.3 ± 0.56 0.1 mm
"CC(=O)Oc1ccccc1C(=O)O [Aspirin, reference compound]",% Increase in bleeding time,platelet aggregation,97%
same,Mouse Tail Bleeding Time,platelet aggregation,72.88 ± 10.9 s
"CN/C(=N/CCSCc1nc[nH]c1C)NC#N [Cimetidine, reference compound]",Percent Inhibition of ulcer frequency,stomach ulcers; cimetidine 25 mg/kg s.c. or Compound III 17.5 mg/kg s.c.,58%
same,"Ulcer Frequency per stomach, Mn ± SE","stomach ulcers; cimetidine 25 mg/kg s.c. or Compound III 17.5 mg/kg s.c. where given, P<0.02",1.07 ± 0.25 Per Stomach
"O=S(=O)(O)OC[C@@H](OS(=O)(=O)O)[C@H]1O[C@H](O)[C@H](O)[C@H]1OS(=O)(=O)O [Compound II, 3,5,6-Tri-O-sulfo-α-D-glucofuranose, tripotassium salt]",IC50,"peritoneal neutrophils; Mus musculus, Neutrophil",30 µM
same,inhibition at 0.1 µg/mL,peritoneal neutrophils; [5],2.5%
same,inhibition at 1 µg/mL,peritoneal neutrophils; [5],45.5%
same,inhibition at 10 µg/mL,peritoneal neutrophils; [5],48.5%
"CCCCC1(CCCC)O[C@H]2O[C@H]([C@@H](COS(=O)(=O)O)OS(=O)(=O)O)[C@H](OS(=O)(=O)O)[C@H]2O1 [Compound IV, 1,2-O-(5-Nonylidene)-3,5,6-tri-O-sulfo-α-D-glucofuranose, tripotassium salt]",IC50,peritoneal neutrophils; [6],> 10 µM
same,inhibition at 1 µg/mL,peritoneal neutrophils; [7],44%
same,Percent Inhibition of chemotaxis,"peritoneal neutrophils; dose 1.0 μg/ml, tripotassium salt",28.5%
same,"Post-ischemic reperfusion 30 minute paw swelling, Mn ± SE","rat paw [2]; study D, 0.2 mg/kg i.p., control 11.4 ± 0.51",21.2 ± 2.25 0.1 mm
same,Swelling change as a result of treatment,"rat paw [2]; study D, 0.2 mg/kg i.p., edema enhancement",+86%
"CCC1(CC)O[C@H]2O[C@H]([C@@H](COS(=O)(=O)O)OS(=O)(=O)O)[C@H](OS(=O)(=O)O)[C@H]2O1 [Compound V, 1,2-O-(3-Pentylidene)-3,5,6-tri-O-sulfo-α-D-glucofuranose, tripotassium salt]",IC50,peritoneal neutrophils; [6],2 µM
same,inhibition at 0.1 µg/mL,peritoneal neutrophils; [8],-8%
same,inhibition at 1 µg/mL,peritoneal neutrophils; [7],62%
same,inhibition at 10 µg/mL,peritoneal neutrophils; [9],101%
"O=S(=O)(O)OC[C@H]1O[C@H](OS(=O)(=O)O)[C@H](O)[C@@H](OS(=O)(=O)O)[C@@H]1O [Compound VII, 1,3,6-Tri-O-sulfo-α-D-glucopyranose, tripotassium salt, reference compound]",IC50,"peritoneal neutrophils; Mus musculus, Neutrophil",< 100 µM
same,inhibition at 0.1 µg/mL,peritoneal neutrophils; [5],8%
same,inhibition at 1 µg/mL,peritoneal neutrophils; [5],23%
same,inhibition at 10 µg/mL,peritoneal neutrophils; [5],29%
"CC1(C)O[C@H]2O[C@H]([C@@H](COS(=O)(=O)O)OS(=O)(=O)O)[C@@H](OS(=O)(=O)O)[C@H]2O1 [Compound VIII, 1,2-O-(2-Propylidene)-3,5,6-tri-O-sulfo-α-D-allofuranose, tripotassium salt]",% Increase in bleeding time,platelet aggregation,278%
same,Mouse Tail Bleeding Time,platelet aggregation,139.88 ± 28.23 s
same,potency relative to aspirin in prolonging mouse tail bleeding time / suppressing platelet aggregation,"platelet aggregation; first study: aspirin 75 mg/kg IP, Compound III s.c. or oral, second study: all IP 100 mg/kg, tripotassium salt",more effective than aspirin; also recorded: more potent than aspirin in the suppression of platelet aggregation
same,paw swelling less than control,"rat paw [2]; 60 minutes of reperfusion time, i.p.",71%
same,% Change as a result of treatment,"rat paw [2]; reperfusion time 20 mins., i.p.",-46%
same,"Paw swelling, Mean ± SE","rat paw [2]; reperfusion time 20 mins., control 8.20 ± 1.02",4.60 ± 0.40 0.1 mm
same,% Change as a result of treatment,"rat paw [2]; reperfusion time 30 mins., i.p.",-64%
same,"Paw swelling, Mean ± SE","rat paw [2]; reperfusion time 30 mins., control 6.60 ± 0.87",2.40 ± 0.51 0.1 mm
same,Drug Effect on thrombi,[3],-38.1%
same,"Mean Thrombi per Stomach, ±SE","[3]; ethanol + ADP, control 10.60 ± 1.42",6.56 ± 1.60 per Stomach
C[C@@H]1C[C@H]2[C@@H]3CCC4=CC(=O)C=C[C@]4(C)[C@@]3(F)[C@@H](O)C[C@]2(C)[C@@]1(O)C(=O)CO [Dexamethasone],"effect on edema that develops following removal of the tourniquet, in words",rat paw [1],effective only when administered more than three hours in advance
"CCCCC[C@H](O)/C=C/[C@H]1[C@H](O)CC(=O)[C@@H]1C/C=C\CCCC(=O)O [PGE2, Prostaglandin E2, reference compound]",IC50,peritoneal neutrophils; [6],0.1 µM
same,inhibition at 0.01 µg/mL,"peritoneal neutrophils; Mus musculus, Neutrophil, dose 0.01 μg/ml, read-out: Percent Inhibition of chemotaxis",71%
same,inhibition at 0.1 µg/mL,peritoneal neutrophils; [8],91.5%
same,inhibition at 0.2 µg/mL,"peritoneal neutrophils; Mus musculus, Neutrophil, dose 0.2 μg/ml, read-out: Percent Inhibition of chemotaxis",71.5%
same,"relative activity in inhibiting neutrophil chemotaxis, in words",peritoneal neutrophils; in vitro,about equally as active as Compound III
"C[C@]12C=CC(=O)C=C1CC[C@@H]1[C@@H]2C(=O)C[C@@]2(C)[C@H]1CC[C@]2(O)C(=O)CO [Prednisone, reference compound]",IC50,peritoneal neutrophils; [6],> 50 µM
same,inhibition at 0.1 µg/mL,peritoneal neutrophils; [8],15.5%
same,inhibition at 1 µg/mL,peritoneal neutrophils; [7],16%
same,inhibition at 10 µg/mL,peritoneal neutrophils; [9],20%
"CC(=O)Nc1ccc(C=Cc2ccc(N=C=S)cc2S(=O)(=O)O)c(S(=O)(=O)O)c1 [SITS, 4-acetamido-4'-isothiocyano-stilbene-2,2'-disulfonate, reference compound]",IC50,"peritoneal neutrophils; Mus musculus, Neutrophil",> 20 µM
same,inhibition at 0.1 µg/mL,peritoneal neutrophils; [5],18.5%
same,inhibition at 1 µg/mL,peritoneal neutrophils; [5],-12.5%
same,inhibition at 10 µg/mL,peritoneal neutrophils; [5],48.5%
"[OH][Al]([OH])[OH] [aluminum trihydroxide, reference compound]",HCl needed to lower pH of suspension to below pH 2.00,"[4]; 50 mg in 20 ml distilled water, initial pH 4.44 (aluminum trihydroxide), 4.91 (sucralfate), 4.23 (Compound III:Al), water alone 0.30",0.90 meq
same,"buffering action, in words",[4]; HCl titration,"only minor buffering power relative to distilled H2 O, but no pK"
O=C(O)Cc1ccccc1Nc1c(Cl)cccc1Cl [diclofenac],"effect on edema that develops following removal of the tourniquet, in words",rat paw [1],not effective at any time
